Counter-ions that a name gives are not always drawn. Like-named read-outs stand apart in the source and are kept apart here.
Assays:
[1] = biological target: T1, Fes (Homo sapiens, UniProt P07332); experiment: Fes kinase assay; type: biochemical
T1 construct: purchased Upstate 14-473
Experimental: • 1. 2.5× Reaction Buffer: 50 mM MOPS, pH 7.0, 2.5 mM EDTA. • 2. Poly(Glu4-Tyr) (4:1): Prepare a 1 mg/ml stock in sterile distilled water. Add 2.5 μl per assay point for a final concentration of 0.1 mg/ml. • 3. Enzyme Dilution Buffer (EDB): 20 mM MOPS, pH 7.0, 1 mM EDTA, 5% glycerol, 0.01% Brij-35, 0.1% β-mercaptoethanol, 1 mg/ml BSA. • 4. Fes/Fps, active: Dilute to 4-40 ng/μl with EDB. Use 2.5 μl per assay. • 5. Magnesium/ATP Cocktail (Catalog #20-113): 75 mM MgCl2 and 500 μM ATP in 20 mM MOPS, pH 7.2, 25 mM β-glycerol phosphate, 5 mM EGTA, 1 mM sodium orthovanadate, 1 mM dithiothreitol. • 6. [γ-^32P]ATP: Stock 1 mCi/100 μl (3000 Ci/mmol, obtained from PerkinElmer, Catalog #LU002A). Make 10 μl aliquots (100 μCi/vial). Before starting the assay, dilute the Magnesium/ATP Cocktail 1:1 with sterile, distilled water. Then dilute an aliquot of [γ-^32P]ATP to 1 μCi/μl with 90 μl of the diluted Magnesium/ATP Cocktail. Use 10 μl per assay point for a final ATP concentration of 100 μM per assay point.
• 1. Add 10 μl of 2.5× Reaction Buffer per assay. • 3. Add 2.5 μl of Fes/Fps, active (10-100 ng). • 4. Add 10 μl of the diluted [γ-^32P]ATP mixture. • 5. Incubate for 10 minutes at 30° C. • 6. Spot 20 μl onto the center of a 2 cm×2 cm […]. • 7. Wash the assay squares three times for 5 minutes with 0.75% phosphoric acid. • 8. Wash the assay squares once for 5 minutes with acetone. • 9. Transfer the assay squares to vials and add 5 ml scintillation cocktail. • 10. Read in scintillation counter. Compare cpm of enzyme samples to cpm of control samples.

[2] = biological target: Cdk3 (Homo sapiens, UniProt Q00526); experiment: Cdk3 inhibition; type: biochemical
Chain of Cdk3 (Q00526 whole entry, species assumed): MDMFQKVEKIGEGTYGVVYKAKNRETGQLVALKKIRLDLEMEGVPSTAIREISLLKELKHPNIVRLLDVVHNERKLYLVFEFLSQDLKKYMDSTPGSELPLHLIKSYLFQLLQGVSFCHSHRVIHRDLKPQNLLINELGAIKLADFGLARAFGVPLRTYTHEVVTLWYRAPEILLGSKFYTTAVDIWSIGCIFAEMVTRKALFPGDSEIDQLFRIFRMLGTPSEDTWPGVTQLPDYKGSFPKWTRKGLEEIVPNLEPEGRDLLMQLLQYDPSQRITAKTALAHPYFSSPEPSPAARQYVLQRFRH
Chain of Cdk3 (P24864 whole entry partner, species assumed): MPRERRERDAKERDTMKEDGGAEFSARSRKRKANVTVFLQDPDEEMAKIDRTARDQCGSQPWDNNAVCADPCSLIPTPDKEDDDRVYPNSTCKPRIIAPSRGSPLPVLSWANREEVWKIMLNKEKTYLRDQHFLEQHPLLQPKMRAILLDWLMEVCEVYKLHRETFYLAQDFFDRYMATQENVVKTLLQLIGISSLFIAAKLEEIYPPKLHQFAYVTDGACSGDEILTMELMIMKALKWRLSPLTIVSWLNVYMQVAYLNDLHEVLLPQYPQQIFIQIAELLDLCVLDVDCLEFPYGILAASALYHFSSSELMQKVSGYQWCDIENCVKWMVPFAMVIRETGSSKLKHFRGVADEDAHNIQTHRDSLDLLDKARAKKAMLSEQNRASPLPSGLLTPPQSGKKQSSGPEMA
From the text: Further inhibition results for subject compounds of the invention against other CDKs and further kinases are shown in Table 5, Table II and described in Example 6.
Table 3, Table 4, Table 5 and Table II show the results obtained for inhibition of a broad range of such kinases for subject compounds of the invention.

[3] = biological target: T2, Rsk3 (Homo sapiens, UniProt Q15349); experiment: Rsk3 kinase assay; type: biochemical
T2 construct: purchased Upstate 14-462
T2 sequence (Q15349 whole entry, species assumed): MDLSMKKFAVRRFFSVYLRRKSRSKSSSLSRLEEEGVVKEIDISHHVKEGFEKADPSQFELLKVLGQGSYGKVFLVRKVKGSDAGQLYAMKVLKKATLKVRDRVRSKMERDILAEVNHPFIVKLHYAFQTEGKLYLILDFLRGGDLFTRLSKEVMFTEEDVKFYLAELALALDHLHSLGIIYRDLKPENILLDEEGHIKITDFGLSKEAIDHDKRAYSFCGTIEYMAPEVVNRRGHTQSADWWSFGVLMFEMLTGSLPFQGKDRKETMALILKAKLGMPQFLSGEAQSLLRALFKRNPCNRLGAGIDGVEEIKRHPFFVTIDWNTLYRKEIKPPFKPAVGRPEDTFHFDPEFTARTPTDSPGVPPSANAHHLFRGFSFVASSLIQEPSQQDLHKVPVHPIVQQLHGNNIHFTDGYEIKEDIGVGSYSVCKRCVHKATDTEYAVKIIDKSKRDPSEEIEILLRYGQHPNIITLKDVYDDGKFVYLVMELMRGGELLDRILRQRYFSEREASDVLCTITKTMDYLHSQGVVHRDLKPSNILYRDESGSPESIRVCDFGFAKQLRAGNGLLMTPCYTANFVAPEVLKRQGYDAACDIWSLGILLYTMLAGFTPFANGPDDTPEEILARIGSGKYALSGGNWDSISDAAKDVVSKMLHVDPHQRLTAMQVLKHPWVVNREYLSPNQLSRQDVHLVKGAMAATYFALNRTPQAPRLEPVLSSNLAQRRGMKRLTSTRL
Experimental: • 1. 2.5× Reaction Buffer: 20 mM MOPS, pH 7.0, 1 mM EGTA. • 2. Enzyme Dilution Buffer (EDB): 20 mM MOPS, pH 7.0, 1 mM EDTA, 0.01% Brij-35, 5% glycerol, 0.1% β-mercaptoethanol, 1 mg/ml BSA. • 3. RSK3, active: Dilute to 4-40 ng/μl with EDB. Use 2.5 μl per assay point. • 4. MAPKAP Kinase 2 substrate peptide (Catalog #12-240): Prepare a 2.5 mM stock. Use 2.5 μl per assay point for a final concentration of 250 μM per assay. • 5. Magnesium/ATP Cocktail (Catalog #20-113): 75 mM MgCl2 and 500 μM ATP in 20 mM MOPS, pH 7.2, 25 mM β-glycerol phosphate, 5 mM EGTA, 1 mM sodium orthovanadate, 1 mM dithiothreitol. • 6. [γ-^32P]ATP: Stock 1 mCi/100 μl (3000 Ci/mmol, obtained from PerkinElmer, Catalog #BLU002A). Make 10 μl aliquots (100 μCi/vial). Before starting the assay, dilute the Magnesium/ATP Cocktail 1:1 with sterile, distilled water. Then dilute an aliquot of [γ-^32P]ATP to 1 μCi/μl with 90 μl of the diluted Magnesium/ATP Cocktail. […]
• 1. Add 10 μl of 2.5× Reaction Buffer per assay. • 2. Add 2.5 μl of MAPKAP Kinase 2 substrate peptide. • 3. Add 2.5 μl of RSK3, active (10-100 ng). • 4. Add 10 μl of the diluted [γ^32P]ATP mixture. • 5. Incubate for 10 minutes at 30° C. • 6. Transfer a 20 μl aliquot onto the center of a 2 cm×2 cm P81 paper. • 7. Wash the assay squares three times for 5 minutes with 0.75% phosphoric acid. • 8. Wash the assay squares once for 5 minutes with acetone. • 9. Transfer the assay squares to vial and add 5 ml scintillation cocktail. • 10. Read in scintillation counter. Compare cpm of enzyme samples to cpm of control samples that contain background control.

[4] = test system: 1A9; experiment: SRB cytotoxicity, 1A9 parental cells; type: cell-based; details: Homo sapiens, 72 h
Experimental: In these experiments, the P-glycoprotein expressing NCI-Adr resistant subline (Vickers et al., 1989. Mol Endocrinology 3 (1):157-164) was used. […] Briefly, cells were plated in 96 well dishes 24 hours prior to compound addition. Where noted, they were exposed to verapamil for 4 hours prior to compound addition and then throughout the treatment period (72 hours). The assay was terminated with the addition of cold TCA to a final concentration of 10% and the plates were incubated for one hour at 4° C. The plates were then washed 5 times with water and 100 μl of a Sulforhodamine B solution (4%) was added to each well. The plate was then incubated for 10 minutes at room temperature before removal of unbound dye by washing with 1% acetic acid.
The tubulin mutated, paclitaxel-resistant human ovarian carcinoma cell line 1A9-PTX10 and its parental paclitaxel-sensitive cell line 1A9 were derived from the A2780 human ovarian carcinoma cell line (J Biol Chem (1997) 272, 17118-17124).

[5] = read-out: FES Inhibition (IC50)
[6] = read-out: RPS6KA2 Inhibition (IC50)

T1 sequence (P07332 whole entry): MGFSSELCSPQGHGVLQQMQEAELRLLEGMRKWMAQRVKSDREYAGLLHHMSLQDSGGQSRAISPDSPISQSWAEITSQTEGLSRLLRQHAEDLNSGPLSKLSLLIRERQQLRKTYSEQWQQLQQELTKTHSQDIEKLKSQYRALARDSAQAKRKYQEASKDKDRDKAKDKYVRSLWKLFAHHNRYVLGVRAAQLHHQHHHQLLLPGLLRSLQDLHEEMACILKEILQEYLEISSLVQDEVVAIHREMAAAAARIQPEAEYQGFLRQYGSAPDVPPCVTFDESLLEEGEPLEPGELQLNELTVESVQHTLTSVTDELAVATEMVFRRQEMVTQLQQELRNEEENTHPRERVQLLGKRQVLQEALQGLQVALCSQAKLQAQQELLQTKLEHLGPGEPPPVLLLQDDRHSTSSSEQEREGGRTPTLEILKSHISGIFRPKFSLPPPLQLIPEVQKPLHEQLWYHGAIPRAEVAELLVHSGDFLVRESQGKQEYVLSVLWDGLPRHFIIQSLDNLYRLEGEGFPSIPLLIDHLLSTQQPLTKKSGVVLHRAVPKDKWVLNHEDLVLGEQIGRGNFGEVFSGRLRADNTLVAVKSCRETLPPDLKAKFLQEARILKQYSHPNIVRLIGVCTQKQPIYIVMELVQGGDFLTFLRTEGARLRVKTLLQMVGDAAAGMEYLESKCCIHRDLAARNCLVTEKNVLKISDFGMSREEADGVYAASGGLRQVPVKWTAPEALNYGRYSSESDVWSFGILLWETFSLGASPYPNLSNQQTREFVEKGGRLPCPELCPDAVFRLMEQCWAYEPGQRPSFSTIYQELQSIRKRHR

CC(C)N1CCN(C(=O)COc2ccc(-c3n[nH]c4c3C(=O)c3c(NC(=O)NN5CCOCC5)cccc3-4)cc2)CC1 [Compound A37]
IC50 [1, 5]: < 0.1 µM
IC50 [2]: < 0.005 µM
IC50 ([3]; kinase panel, 10 μM ATP, read-out: Ribosomal protein S6 kinase 3 (Rsk3) IC50): 0.01 to 0.1 µM
IC50 [3, 6]: < 0.05 µM
IC50 [4]: 0.0133 µM

COCCN1CCN(Cc2ccc(-c3n[nH]c4c3C(=O)c3c(NC(=O)NN5CCOCC5)cccc3-4)cc2)CC1 [Compound B16, N-[3-(4-{[4-(2-methoxyethyl)piperazinyl]methyl}phenyl)-4-oxoindeno[2,3-d]pyrazol-5-yl](morpholin-4-ylamino)carboxamide dihydrochloride]
IC50 ([1]; kinase panel, read-out: Fes IC50): < 0.1 µM
IC50 [1, 5]: < 0.1 µM
IC50 [2]: < 0.005 µM
IC50 [3, 6]: < 0.5 µM
IC50 [4]: 0.0107 µM

From US20080146555A1, “Uses of Kinase Inhibitors and Compositions Thereof” (GPC Biotech, Inc, priority 2004, published 2008)
